From PubChem BioAssay (NCI) come the findings set out here.

Test systems include RXF 393 renal; SF-539 CNS; SF-295 CNS; OVCAR-8 ovarian; IGROV1 ovarian; SK-MEL-28 melanoma; BT-549 breast; MOLT-4 leukemia; SNB-19 CNS; CCRF-CEM leukemia.
Assay in all cases: NCI-60 cell line screen, 48 h

SMILES strings stand for the structures. Values joined by “and” are separate entries in the source; they are usually repeats but may differ in a detail not shown here. Equal entries are not always repeated.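 Tested at 5 concentrations; 48 h exposure; 96-well plates; endpoints linearly interpolated, else capped at highest concentration. Here, GI50 denotes the concentration required for 50% inhibition of growth. TGI: total growth inhibition.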

On to `COc1ccccc1Oc1nccc(-c2c(-c3ccc(F)cc3)ncn2C2CCNCC2)n1`, for which the GI50 was 8.67 µM in the test on RXF 393 renal; over 25 µM in the test on SF-539 CNS; 17.5 µM in the test with SF-295 CNS; over 25 µM in the test with OVCAR-8 ovarian; over 22.6 µM in the test with IGROV1 ovarian; over 24.1 µM with SK-MEL-28 melanoma. Also, the GI50 in the test with BT-549 breast was over 23.6 µM; in the test on MOLT-4 leukemia it was over 16.3 µM; in the test with SNB-19 CNS, over 25 µM. In addition, the TGI with RXF 393 renal, in the test on SF-539 CNS, with SF-295 CNS, with OVCAR-8 ovarian, in the test on IGROV1 ovarian and with SK-MEL-28 melanoma was over 25 µM in each case. For the same compound, the TGI with BT-549 breast, in the test with MOLT-4 leukemia and in the test with SNB-19 CNS was over 25 µM throughout.
With `COCCOC1=C(Cl)C(=O)c2ccccc2C1=O`, the GI50 was 3.31 µM in the test on RXF 393 renal; 2.52 µM in the test on SF-539 CNS; 4.42 µM with SF-295 CNS; 3.11 µM in the test on OVCAR-8 ovarian; 2.62 µM with IGROV1 ovarian; 3.22 µM in the test on SK-MEL-28 melanoma. For the same compound, the GI50 is 3.2 µM with BT-549 breast, 1.81 µM in the test with MOLT-4 leukemia and 4.55 µM with SNB-19 CNS. Further, the TGI with RXF 393 renal turned out to be 10.2 µM; in the test with SF-539 CNS, 5.79 µM; in the test on SF-295 CNS it was 15.9 µM; in the test on OVCAR-8 ovarian, 10.7 µM; in the test on IGROV1 ovarian, 6.44 µM; with SK-MEL-28 melanoma it was 10.9 µM. The TGI is 10.6 µM with BT-549 breast, 42 µM with MOLT-4 leukemia and 16.8 µM with SNB-19 CNS.
`CCOC(=O)/C(=C\c1cccc(C)c1)C(C)=O`: the TGI in the test with RXF 393 renal worked out at 24.9 µM; with SF-539 CNS, 40.3 µM; with SF-295 CNS it was 55.8 µM; in the test on OVCAR-8 ovarian, 75.1 µM; with IGROV1 ovarian, 40.8 µM; in the test on SK-MEL-28 melanoma, 30.5 µM. For the same compound, the TGI in the test on BT-549 breast worked out at 22.7 µM; with MOLT-4 leukemia, 66.6 µM; in the test on SNB-19 CNS it was 36.7 µM.
Consider `COc1cc2nnc3c4cccnc4[nH]c3c2cc1OC`, for which the GI50 with RXF 393 renal is 1.17 µM and 0.707 µM; in the test on SF-539 CNS it was 2.79 µM and 1.73 µM; with SF-295 CNS, 9.72 µM and 2.43 µM; in the test with OVCAR-8 ovarian it was 3.91 µM and 1.25 µM; with IGROV1 ovarian, 1.02 µM and 1.73 µM; in the test with SK-MEL-28 melanoma, 18.8 µM and 4.49 µM. Also, the GI50 in the test on BT-549 breast was 6.42 µM and 3.75 µM; with SNB-19 CNS it was 9.04 µM and 2.77 µM. Moreover, the TGI with SF-539 CNS was 11.4 µM and 3.52 µM; with SF-295 CNS it was 50 µM and 6.92 µM; in the test with OVCAR-8 ovarian, 50 µM and > 100 µM; in the test with IGROV1 ovarian, 19.4 µM and 5.83 µM; in the test with SK-MEL-28 melanoma it was 50 µM and > 100 µM; with BT-549 breast it was 43.9 µM and 35.1 µM. In addition, in the test with SNB-19 CNS, the TGI was 42.4 µM and 15.4 µM.
For the compound `CNCc1ccc(-c2cc(-c3nc(-c4ccc(S(=O)(=O)C(C)C)cc4)cnc3N)on2)cc1`, the GI50 with SF-539 CNS is 0.502 µM; in the test with SF-295 CNS, 4.5 µM; in the test on OVCAR-8 ovarian it was 2.31 µM; with IGROV1 ovarian, 1.2 µM; in the test on CCRF-CEM leukemia, 0.215 µM; in the test on SK-MEL-28 melanoma, 1.72 µM. In addition, the GI50 with BT-549 breast is 2.04 µM; in the test on MOLT-4 leukemia it was 0.376 µM; in the test on SNB-19 CNS, 12.1 µM. Further, the TGI in the test with SF-539 CNS was found to be 1.88 µM; with SF-295 CNS, 22.9 µM; in the test with OVCAR-8 ovarian it was 5.94 µM; in the test on IGROV1 ovarian, 10.5 µM; in the test on CCRF-CEM leukemia, 3.42 µM; in the test with SK-MEL-28 melanoma, 3.21 µM. In addition, the values for the TGI in the test on BT-549 breast, in the test on MOLT-4 leukemia and in the test on SNB-19 CNS were 30.4 µM, 3.07 µM and 36.8 µM, respectively.
Take `Cc1cccc(Cn2cc(CO)c3cnccc32)c1`: the GI50 is over 100 µM in the test on RXF 393 renal; over 100 µM in the test with SF-539 CNS; 12.4 µM with SF-295 CNS; 53.7 µM in the test with OVCAR-8 ovarian; 44.8 µM in the test with IGROV1 ovarian; over 100 µM in the test on SK-MEL-28 melanoma. In addition, the figures for the GI50 with BT-549 breast and with SNB-19 CNS were 35.7 µM and over 100 µM, respectively. Further, the TGI in the test with RXF 393 renal was over 100 µM; in the test on SF-539 CNS, over 100 µM; in the test on SF-295 CNS, 76.7 µM; in the test on OVCAR-8 ovarian, over 100 µM; in the test with IGROV1 ovarian, over 100 µM; in the test on SK-MEL-28 melanoma it was over 100 µM. Besides, the TGI with BT-549 breast and in the test on SNB-19 CNS was over 100 µM throughout.
For `CC[C@H](C)[C@H](NC(=O)[C@H]1CCCCN1C)C(=O)N(C)[C@H](C[C@@H](OC(C)=O)c1nc(C(=O)NC23CC(C(=O)OC)(C2)C3)cs1)C(C)C`, the GI50 in the test on SF-539 CNS was 0.000553 µM and 0.00325 µM; in the test with SF-295 CNS, 0.00128 µM and 0.00325 µM; with OVCAR-8 ovarian, 0.00056 µM and 0.00325 µM; in the test with IGROV1 ovarian, 0.00132 µM and 0.00325 µM; in the test with CCRF-CEM leukemia, 0.000402 µM and 0.00325 µM; in the test with BT-549 breast, 0.00048 µM and 0.00325 µM. Further, the GI50 was 0.000696 µM and 0.00325 µM in the test on MOLT-4 leukemia; 0.00105 µM and 0.00325 µM with SNB-19 CNS. In addition, the TGI in the test on SF-539 CNS was 0.00779 µM and 0.00601 µM; in the test on OVCAR-8 ovarian, over 32.5 µM; with IGROV1 ovarian, over 32.5 µM; with CCRF-CEM leukemia, 1.47 µM; with SK-MEL-28 melanoma, over 32.5 µM; with BT-549 breast, 0.0253 µM and 0.0318 µM. Further, the TGI with MOLT-4 leukemia and in the test on SNB-19 CNS was over 32.5 µM in each case.
On to `CCc1ccc(Nc2cc(C)c3ccc(O)cc3n2)cc1`, for which the GI50 with RXF 393 renal is 4.08 µM; in the test on SF-539 CNS, 5.74 µM; in the test with SF-295 CNS it was 5.06 µM; with OVCAR-8 ovarian it was 10.8 µM; with IGROV1 ovarian, 6.14 µM; in the test with SK-MEL-28 melanoma, 11.7 µM. Moreover, the GI50 is 4.48 µM with BT-549 breast, 3.6 µM in the test with MOLT-4 leukemia and 13 µM with SNB-19 CNS. The TGI came out at 17.1 µM in the test on RXF 393 renal; 19.1 µM with SF-539 CNS; 20.3 µM with SF-295 CNS; 35.3 µM in the test on OVCAR-8 ovarian; 20.8 µM in the test on IGROV1 ovarian; 24.7 µM in the test on SK-MEL-28 melanoma. In addition, the TGI in the test with BT-549 breast stood at 16.3 µM; in the test with MOLT-4 leukemia it was 19 µM; with SNB-19 CNS, 32.1 µM.
Regarding `OCCCCC#Cc1ccccc1C#Cc1cccc(C(F)(F)F)c1`, the GI50 in the test on SF-539 CNS is 20.1 µM; with SF-295 CNS, 16.5 µM; with OVCAR-8 ovarian, 18.8 µM; with IGROV1 ovarian it was 14.4 µM; in the test with CCRF-CEM leukemia, 20.2 µM; in the test on SK-MEL-28 melanoma it was 12 µM. Further, the GI50 in the test on BT-549 breast is 16.4 µM; with MOLT-4 leukemia, 21.8 µM; in the test with SNB-19 CNS it was 20.2 µM. Moreover, the TGI in the test on SF-539 CNS turned out to be 38 µM; in the test with SF-295 CNS, 30.9 µM; in the test on OVCAR-8 ovarian it was 35.7 µM; in the test with IGROV1 ovarian, 28.5 µM; with CCRF-CEM leukemia, 38.2 µM; in the test with SK-MEL-28 melanoma it was 25 µM. Further, the TGI worked out at 30.7 µM in the test on BT-549 breast, 59.9 µM in the test on MOLT-4 leukemia and 36.4 µM in the test on SNB-19 CNS.
Regarding `COc1cc(-c2nccc3[nH]c(-c4ccc5cc[nH]c5c4)nc23)cc(OC)c1OC`, the GI50 with SF-539 CNS was under 0.01 µM; with SF-295 CNS it was under 0.01 µM; with OVCAR-8 ovarian, under 0.01 µM; in the test with IGROV1 ovarian it was 0.015 µM; in the test with CCRF-CEM leukemia, under 0.01 µM; with BT-549 breast it was under 0.01 µM. In addition, the GI50 with MOLT-4 leukemia and with SNB-19 CNS was under 0.01 µM each time. For the same compound, the TGI in the test on SF-539 CNS is under 0.01 µM; in the test on SF-295 CNS, under 0.01 µM; in the test with OVCAR-8 ovarian it was 11.1 µM; in the test with IGROV1 ovarian it was 3.77 µM; in the test with CCRF-CEM leukemia it was 12.2 µM; with BT-549 breast it was 2.71 µM. The values for the TGI in the test on MOLT-4 leukemia and with SNB-19 CNS were 7.26 µM and 15.8 µM, respectively.
For `COc1ccc(-c2nc3ccc(Cc4ccc5nc(-c6ccc(OC)cc6)[nH]c5c4)cc3[nH]2)cc1`, the GI50 in the test with SF-539 CNS is 0.022 µM; in the test with SF-295 CNS it was 0.0176 µM; in the test on OVCAR-8 ovarian, 0.0438 µM; in the test with IGROV1 ovarian, 0.0445 µM; with CCRF-CEM leukemia, under 0.01 µM; in the test on SK-MEL-28 melanoma, 0.252 µM. Besides, the GI50 in the test on BT-549 breast is 0.231 µM; in the test on MOLT-4 leukemia, under 0.01 µM; with SNB-19 CNS, 0.0469 µM. The TGI was determined as 0.0707 µM in the test with SF-539 CNS; 0.364 µM in the test on SF-295 CNS; 1.17 µM in the test with OVCAR-8 ovarian; 2.26 µM with IGROV1 ovarian; 0.275 µM in the test on CCRF-CEM leukemia; 2.49 µM with SK-MEL-28 melanoma. Further, the results for the TGI with BT-549 breast, with MOLT-4 leukemia and in the test with SNB-19 CNS were 2.54 µM, 1.29 µM and 5.8 µM, respectively.
Turning to `CC(=O)Oc1c(C(=O)[O-])cc(C(C)C)cc1C(C)C.CC(=O)Oc1c(C(=O)[O-])cc(C(C)C)cc1C(C)C.CC(=O)Oc1c(C(=O)[O-])cc(C(C)C)cc1C(C)C.CC(=O)Oc1c(C(=O)[O-])cc(C(C)C)cc1C(C)C.[Cu+2].[Cu+2]`, the GI50 is 72.3 µM with SF-539 CNS; 24.4 µM with SF-295 CNS; 30.6 µM in the test on OVCAR-8 ovarian; 30.4 µM in the test on IGROV1 ovarian; 20.5 µM with CCRF-CEM leukemia; 17.9 µM in the test with SK-MEL-28 melanoma. Also, the GI50 was 16.7 µM in the test on BT-549 breast, 74.9 µM in the test with MOLT-4 leukemia and 26.3 µM in the test with SNB-19 CNS. Also, the TGI in the test on SF-539 CNS was over 100 µM; in the test with SF-295 CNS it was 70.5 µM; with OVCAR-8 ovarian, over 100 µM; in the test on IGROV1 ovarian it was over 100 µM; in the test with CCRF-CEM leukemia, 53.7 µM; in the test on SK-MEL-28 melanoma, 33.4 µM. The TGI in the test with BT-549 breast is 38.5 µM; in the test on MOLT-4 leukemia, over 100 µM; with SNB-19 CNS, 61.7 µM.
